Experimental data: paper PMC4175339, “Inhibition of the Functional Interplay between Endoplasmic Reticulum (ER) Oxidoreduclin-1α (Ero1α) and Protein-disulfide Isomerase (PDI) by the Endocrine Disruptor Bisphenol A” (The Journal of Biological Chemistry, 2014)

Molecular target: T1, human PDI + hyperactive human Ero1α (Ero1α-mediated PDI oxidation) (Homo sapiens, UniProt P07237)
T1 construct: gene P4HB; recombinant from E. coli; with ERO1-like protein alpha
Test: NADPH consumption assay coupled to glutathione reductase, A340
Format: biochemical

T1 sequence (P07237 18-508): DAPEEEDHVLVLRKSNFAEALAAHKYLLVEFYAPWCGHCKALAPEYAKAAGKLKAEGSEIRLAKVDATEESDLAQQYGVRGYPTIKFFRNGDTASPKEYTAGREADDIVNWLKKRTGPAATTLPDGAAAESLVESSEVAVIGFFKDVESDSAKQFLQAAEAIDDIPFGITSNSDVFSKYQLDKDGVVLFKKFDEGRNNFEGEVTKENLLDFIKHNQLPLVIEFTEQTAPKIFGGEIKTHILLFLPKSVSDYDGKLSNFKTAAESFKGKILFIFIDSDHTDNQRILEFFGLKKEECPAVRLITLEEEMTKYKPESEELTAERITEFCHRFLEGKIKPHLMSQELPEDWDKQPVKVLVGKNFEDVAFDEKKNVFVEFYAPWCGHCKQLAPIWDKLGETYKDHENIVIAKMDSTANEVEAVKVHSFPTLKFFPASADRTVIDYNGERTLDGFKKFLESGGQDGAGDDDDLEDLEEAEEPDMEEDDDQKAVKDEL
T1 sequence (Q96HE7 24-468 C104A/C131A partner): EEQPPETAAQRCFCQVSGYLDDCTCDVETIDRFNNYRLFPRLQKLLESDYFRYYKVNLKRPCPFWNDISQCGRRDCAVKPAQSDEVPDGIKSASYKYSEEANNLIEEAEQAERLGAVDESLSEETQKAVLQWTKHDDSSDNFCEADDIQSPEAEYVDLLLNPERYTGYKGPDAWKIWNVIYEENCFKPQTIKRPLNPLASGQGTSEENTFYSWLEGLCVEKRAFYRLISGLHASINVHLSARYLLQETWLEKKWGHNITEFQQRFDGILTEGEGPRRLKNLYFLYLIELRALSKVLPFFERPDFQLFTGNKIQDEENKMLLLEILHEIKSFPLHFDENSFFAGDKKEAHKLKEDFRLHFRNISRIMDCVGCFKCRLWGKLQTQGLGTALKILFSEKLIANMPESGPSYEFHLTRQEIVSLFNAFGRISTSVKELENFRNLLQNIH

IC50: 41 µM
Compound: CC(C)(c1ccc(O)cc1)c1ccc(O)cc1 [bisphenol A, 2,2′-bis(4-hydroxyphenyl) propane]
